Measured values from patent publication US11415571B2, “Large scale organoid analysis” (Tempus Labs, Inc., priority 2019, dated 2022).
Counter-ions that a name gives are not always drawn.

Legend:
[1] = system: gastric cancer tumor organoid line; assay: cells; details: for viability at 10 µM: Homo sapiens, read-out: mean viability for all organoids in the plot; for organoids of the line that are resistant to the drug / organoids with 0% viability (susceptible to the drug) / organoids with 100% viability (resistant to the drug): caspase 3/7 readout, 10,000 nM dose
Method: (§1) TOs were dissociated as described above and resuspended in a 30:70% mix of GFR Matrigel:growth media at a concentration of 100 cells/μl. The solution was added to 384-well assay plates (Corning) at 20 μl per well for a final concentration of 2,000 cells per well. Assay plates were covered with a Breathe-Easy sealing membrane (Sigma Aldrich) to prevent evaporation. TOs were grown for 72 hours before drug addition. Drugs were prepared in growth media with 2.5 μM Caspase-3/7 Green Apoptosis Assay Reagent (Essen Bioscience). Serial dilutions of each molecule were prepared in 384-well polystyrene plates (Nunc). Diluted drug was added to the assay plate using an Integra Viaflo pipette (Integra) mounted on an Integra Assist Plus Pipetting Robot (Integra). Assay plates were again covered with a Breathe-Easy sealing membrane and TOs were exposed to drugs for another 72 hours before imaging.
(§2) Prior to imaging, TOs were incubated with 4 μM Hoechst 33342 (Fisher Scientific) and 300 nM TO-PRO-3 Iodide (642/661) (Invitrogen) for 1.5-2 hours. Assay plates were imaged using an ImageXpress Micro Confocal (Molecular Devices) at 10× magnification so that ˜100-200 TOs were imaged per well. Images were acquired as 4×15 μm Z-stacks and the 2D projections were analyzed to assess cell viability. Confocal images were analyzed using the MetaXpress software (Molecular Devices) custom module editor feature to design an analysis module that identified TOs by clusters of Hoechst 33342 staining, individual cells by Hoechst 33342 staining, and dead/dying cells by either TO-PRO-3 or Caspase-3/7 staining. The result of this analysis module is a spreadsheet detailing the number of live and dead cells for every individual organoid.
(§3) The percentage of viable cells per organoid was calculated based on the image analysis described above. Organoids with fewer than three cells and larger than the top one percent by size were excluded from analysis. The mean viability for all organoids at a given drug concentration was used in dose-response curves to calculate AUC. AUC was calculated using the computeAUC function using settings for “actual” AUC of the R Package PharmacoGx (v1.17.1). Heatmaps of AUC values were generated using the Pheatmap package (v1.0.12) in R. Scatterplots of AUC values were generated using the ggplot2 package (v3.3.0) in R.
(§4) In this example, data for each therapy is presented as a histogram. […] Viability was determined by the systems and methods disclosed above.
(§5) Each tumor organoid line in these examples was cultured individually in wells of a tissue culture plate, as described above.
In this example, tissue culture wells containing a gastric cancer tumor organoid line were each exposed to one of the therapies listed above.

[2] = system: second lung cancer tumor organoid line; assay: high throughput tumor organoid drug screen, per-organoid viability histogram; details: for viability at 10 µM: Homo sapiens, read-out: mean viability for all organoids in the plot
Method: as §1, §2, §3, §4, §5
In this example, tissue culture wells containing a second lung cancer tumor organoid line were each exposed to one of the therapies listed above.

[3] = system: first lung cancer tumor organoid line; assay: as above; details: 10,000 nM dose; for viability at 10 µM: Homo sapiens, read-out: mean viability for all organoids in the plot, caspase 3/7 readout
Method: as §1, §2, §3, §4, §5
In this example, tissue culture wells containing a first lung cancer tumor organoid line were each exposed to one of the therapies listed above.

[4] = system: colon cancer tumor organoid line; assay: as above; format: cell-based, human; details: caspase 3/7 readout, 10,000 nM dose; for viability at 10 µM: Homo sapiens, read-out: mean viability for all organoids in the plot
Method: as §1, §2, §3, §4, §5
In this example, tissue culture wells containing a colon cancer tumor organoid line were each exposed to one of the therapies listed above.

[5] = system: colorectal cancer tumor organoid line; assay: as above; format: cell-based, human; details: caspase 3/7 readout, 10,000 nM dose; for viability at 10 µM: Homo sapiens, read-out: mean viability for all organoids in the plot
Method: as §1, §2, §3, §4, §5
In this example, tissue culture wells containing a colorectal cancer tumor organoid line were each exposed to one of the therapies listed above.

[6] = system: second endometrial cancer tumor organoid line; assay: as above; details: for viability at 10 µM: Homo sapiens, read-out: mean viability for all organoids in the plot; for organoids of the line that are resistant to the drug / organoids with 0% viability (susceptible to the drug) / organoids with 100% viability (resistant to the drug): caspase 3/7 readout, 10,000 nM dose
Method: as §1, §2, §3, §4, §5
In this example, tissue culture wells containing a second endometrial cancer tumor organoid line were each exposed to one of the therapies listed above.

[7] = system: first endometrial cancer tumor organoid line; assay: as above
Method: as §1, §2, §3, §4, §5
In this example, tissue culture wells containing a first endometrial cancer tumor organoid line were each exposed to one of the therapies listed above.

[8] = system: head and neck cancer tumor organoid line; assay: as above; details: for viability at 10 µM: Homo sapiens, read-out: mean viability for all organoids in the plot; for organoids of the line that are resistant to the drug / organoids with 0% viability (susceptible to the drug) / organoids with 100% viability (resistant to the drug): caspase 3/7 readout, 10,000 nM dose
Method: as §1, §2, §3, §4, §5
In this example, tissue culture wells containing a head and neck cancer tumor organoid line were each exposed to one of the therapies listed above.

[9] = caspase 3/7 readout, 10,000 nM dose

`CC(C)C[C@H](NC(=O)[C@H](Cc1ccccc1)NC(=O)c1cnccn1)B(O)O` [Bortezomib] was tested, and the viability at 10 µM [1] was roughly 15%, the “organoids of the line that are resistant to the drug” value [1] was “general absence” and the “organoids with 0% viability (susceptible to the drug)” value (“organoids with 0% viability” below) [1] was “Approximately 225 organoids”. For the same compound, the “organoids with 100% viability (resistant to the drug)” value (“organoids with 100% viability” for short) [1] was “Approximately 15 organoids”.
In the case of `CCc1c2c(nc3ccc(O)cc13)-c1cc3c(c(=O)n1C2)COC(=O)[C@]3(O)CC` [SN-38], the “mean viability for all organoids in the plot” value (shortened to “mean viability”) [2, 9] is reported as “approximately 20%”, the “organoids of the line that are resistant to the drug” value [2, 9] is reported as “general absence” and the “organoids with 0% viability” value [2, 9] is reported as “Approximately 100 organoids”. The “organoids with 100% viability” value [2, 9] was “Approximately 5 organoids”, the “mean viability” value ([3]; caspase 3/7 readout) was “approximately 45%” and the “organoids of the line that are resistant to the drug” value ([3]; caspase 3/7 readout) was “presence of organoids”. For the same compound, the “organoids with 0% viability” value ([3]; caspase 3/7 readout) was “Approximately 20 organoids” and the “organoids with 100% viability” value ([3]; caspase 3/7 readout) was “Approximately 20 organoids”.
For `CC(=O)O[C@@]12CO[C@@H]1C[C@H](O)[C@@]1(C)C(=O)[C@H](O)C3=C(C)[C@@H](OC(=O)[C@H](O)[C@@H](NC(=O)OC(C)(C)C)c4ccccc4)C[C@@](O)([C@@H](OC(=O)c4ccccc4)[C@H]21)C3(C)C` [Docetaxel], the viability at 10 µM [2] was roughly 30%, the “organoids of the line that are resistant to the drug” value [2, 9] was “presence of a small proportion” and the “organoids with 0% viability” value [2, 9] was “Approximately 50 organoids”. The “organoids with 100% viability” value [2, 9] was “Approximately 20 organoids”, the viability at 10 µM [4] was roughly 20% and the “organoids of the line that are resistant to the drug” value [4] was “general absence”. The “organoids with 0% viability” value [4] was “Approximately 70 organoids”, the “organoids with 100% viability” value [4] was “Approximately 15 organoids” and the viability at 10 µM [5] was roughly 45%. For the same compound, the “organoids of the line that are resistant to the drug” value [5] was “presence of organoids”, the “organoids with 0% viability” value [5] was “Approximately 35 organoids” and the “organoids with 100% viability” value [5] was “Approximately 30 organoids”.
In the case of `COc1cccc(OCCCN)c1-c1cc(Nc2cnc(C#N)cn2)n[nH]1` [Prexasertib, Prexasertib HCl], the viability at 10 µM [6] is reported as roughly 40%, the “organoids of the line that are resistant to the drug” value [6] is reported as “presence of a small proportion” and the “organoids with 0% viability” value [6] is reported as “Approximately 80 organoids”. The “organoids with 100% viability” value [6] was “Approximately 35 organoids”.
With `CC(=O)Nc1cccc(-n2c(=O)n(C3CC3)c(=O)c3c(Nc4ccc(I)cc4F)n(C)c(=O)c(C)c32)c1` [Trametinib] the viability at 10 µM [5] was roughly 25%, the “organoids with 0% viability” value [5] was “Approximately 50 organoids” and the “organoids with 100% viability” value [5] was “Approximately 10 organoids”.
In the case of `O=c1[nH]cc(F)c(=O)[nH]1` [Fluorouracil], the viability at 10 µM [4] is reported as roughly 25%, the “organoids of the line that are resistant to the drug” value [4] is reported as “general absence” and the “organoids with 0% viability” value [4] is reported as “Approximately 70 organoids”. The “organoids with 100% viability” value [4] was “Approximately 10 organoids”.
With `N.N.[Cl][Pt][Cl]` [Cisplatin] the “organoids of the line that are resistant to the drug” value [7, 9] was “general absence”, the “organoids with 0% viability” value [7, 9] was “Approximately 60 organoids” and the “organoids with 100% viability” value [7, 9] was “Approximately 5 organoids”.
`C[C@@]1(CO)[C@H](O)CC[C@@]2(C)[C@H]1CC[C@H]1C[C@@H]3C[C@@]12CC[C@]3(O)CO` [Aphidicolin] was tested, and the viability at 10 µM [2] was roughly 30%, the “organoids of the line that are resistant to the drug” value [2, 9] was “presence of a small proportion” and the “organoids with 0% viability” value [2, 9] was “Approximately 50 organoids”. For the same compound, the “organoids with 100% viability” value [2, 9] was “Approximately 15 organoids” and the “organoids of the line that are resistant to the drug” value ([3]; caspase 3/7 readout) was “presence of organoids”.
In the case of `O=C(O)/C=C/c1ccc(-c2ccc(O)c(C34CC5CC(CC(C5)C3)C4)c2)cc1` [ST-1926, Adarotene], the viability at 10 µM ([7]; Homo sapiens, read-out: mean viability for all organoids in the plot) is reported as roughly 30%, the “organoids of the line that are resistant to the drug” value [7, 9] is reported as “general absence” and the “organoids with 0% viability” value [7, 9] is reported as “Approximately 45 organoids”. For the same compound, the “organoids with 100% viability” value [7, 9] was “Approximately 10 organoids”, the viability at 10 µM [6] was roughly 40% and the “organoids of the line that are resistant to the drug” value [6] was “presence of a small proportion”. The “organoids with 0% viability” value [6] was “Approximately 65 organoids” and the “organoids with 100% viability” value [6] was “Approximately 40 organoids”.
For `CCCCc1nc2cc(/C=C/C(=O)NO)ccc2n1CCN(CC)CC` [Pracinostat], the viability at 10 µM [1] was roughly 20%, the “organoids of the line that are resistant to the drug” value [1] was “general absence” and the “organoids with 0% viability” value [1] was “Approximately 120 organoids”. The “organoids with 100% viability” value [1] was “Approximately 10 organoids”.
`CC(=O)O/N=C1/C(=C2/C(=O)Nc3cc(Br)ccc32)Nc2ccccc21` [BIO-acetoxime] was tested, and the “organoids of the line that are resistant to the drug” value [1] was “general absence”, the “organoids with 0% viability” value [1] was “Approximately 150 organoids” and the “organoids with 100% viability” value [1] was “Approximately 20 organoids”.
`Nc1ccn([C@@H]2O[C@H](CO)[C@@H](O)C2(F)F)c(=O)n1` [Gemcitabine] was tested, and the viability at 10 µM [2] was roughly 35%, the “organoids of the line that are resistant to the drug” value [2, 9] was “presence of a small proportion” and the “organoids with 0% viability” value [2, 9] was “Approximately 30 organoids”. For the same compound, the “organoids with 100% viability” value [2, 9] was “Approximately 10 organoids”, the viability at 10 µM [3] was roughly 35% and the “organoids of the line that are resistant to the drug” value ([3]; caspase 3/7 readout) was “presence of a small proportion”. The “organoids with 100% viability” value ([3]; caspase 3/7 readout) was “Approximately 15 organoids”.
With `CO[C@@H](C)Cn1c(=O)n(C)c2cnc3ccc(-c4cncc(C(C)(C)O)c4)cc3c21` [LY3023414] the viability at 10 µM [8] was roughly 15%, the “organoids of the line that are resistant to the drug” value [8] was “general absence” and the “organoids with 0% viability” value [8] was “Approximately 80 organoids”. The “organoids with 100% viability” value [8] was “Approximately 5 organoids”.
`O=C1[O][Pt]2([NH][C@@H]3CCCC[C@H]3[NH]2)[O]C1=O` [Oxaliplatin] was tested, and the “mean viability” value [7, 9] was “approximately 40%”, the “organoids of the line that are resistant to the drug” value [7, 9] was “presence of organoids” and the “organoids with 0% viability” value [7, 9] was “Approximately 20 organoids”. The “organoids with 100% viability” value [7, 9] was “Approximately 18 organoids”.
In the case of `CCS(=O)(=O)Nc1ccc2c(c1)/C(=C(/Nc1ccc(CN3CCCCC3)cc1)c1ccccc1)C(=O)N2` [Hesperadin], the viability at 10 µM [6] is reported as roughly 20%, the “organoids with 0% viability” value [6] is reported as “Approximately 100 organoids” and the “organoids with 100% viability” value [6] is reported as “Approximately 5 organoids”.
In the case of `CC(=O)O[C@H]1C(=O)[C@@]2(C)[C@H]([C@H](OC(=O)c3ccccc3)[C@]3(O)C[C@H](OC(=O)[C@H](O)[C@@H](NC(=O)c4ccccc4)c4ccccc4)C(C)=C1C3(C)C)[C@]1(OC(C)=O)CO[C@@H]1C[C@@H]2O` [Paclitaxel], the viability at 10 µM [8] is reported as roughly 40%, the “organoids of the line that are resistant to the drug” value [8] is reported as “presence of a small proportion” and the “organoids with 0% viability” value [8] is reported as “Approximately 65 organoids”. The “organoids with 100% viability” value [8] was “Approximately 35 organoids”.
In the case of `NC(=O)c1cccc2cn(-c3ccc([C@@H]4CCCNC4)cc3)nc12` [Niraparib], the viability at 10 µM [3] is reported as roughly 25%, the “organoids of the line that are resistant to the drug” value ([3]; caspase 3/7 readout) is reported as “presence of a small proportion” and the “organoids with 0% viability” value ([3]; caspase 3/7 readout) is reported as “Approximately 80 organoids”. The “organoids with 100% viability” value ([3]; caspase 3/7 readout) was “Approximately 20 organoids”.
